Experimental data reported in US11779014B2, “Adjuvants” (SYNGENTA PARTICIPATIONS AG, priority 2017, dated 2023).

How the values were obtained:
[1] = De-gelling temperature of aqueous surfactant blends by low shear rheology (Bohlin Gemini rheometer, storage modulus vs temperature); type: physicochemical; conditions: for Degelling temperature: Table 18
Experimental: The temperatures at which blends of capped and uncapped surfactants de-gel were determined by standard low shear rheology with a Bohlin™ Gemini rheometer. The storage modulus (G′) at 1 Hz was determined at a strain of 0.001-0.002 in a standard C14 cup and bob geometry over a temperature range of 5-70° C., the exact range depending on the de-gelling point of the sample. Plots of storage modulus versus temperature were constructed and the de-gelling temperature was taken to be the point at which the modulus begins to fall rapidly from its high value in the gelled state (typically ca. 10^5 Pa) down to the final value in the de-gelled state (less than 10 Pa). Blends of surfactants were prepared at from 25 to 40% w/w total surfactant concentration in water. Samples were left in an oven at 55° C. for several days to ensure that the mixtures were homogeneous. Samples were placed in the C14 cup and the samples were de-gelled by raising the temperature in the rheometer, the bob was then inserted and the sample was then cooled at 1° C./min, whilst the storage modulus was regularly recorded during the cooling. Once the final temperature had been reached (i.e. when the sample had gelled), the temperature was then increased again and the modulus again recorded. The de-gelling temperature was determined from the increasing temperature cycle.
Degelling temperatures—the measurements relied on the same method as for ‘Example 1’ but just at 30% w/w total surfactant concentration.
De-gelling temperatures were measured using the same method as in Example 1.
This example provides de-gelling, cloud point and adjuvancy data for dodecyl 23 ethoxylate with n-hexyl cap and hexadecyl 20 ethoxylate with n-hexyl cap Cloud points were measured as described in example 1 for 1% aqueous solutions of the capped and uncapped surfactants both individually and as blends (see Table 30). Degelling temperatures were also measured as outlined in example 1 for 25, 30, 35 and 40% aqueous solutions of the capped and uncapped surfactants both individually and as blends (see Table 31).
This example provides de-gelling, cloud point and adjuvancy data for oleyl 20 ethoxylate with n-butyl, n-pentyl or benzyl ether caps end capped oleyl 20 ethoxylate. Cloud points were measured as described in example 1 for 1% aqueous solutions of the capped and uncapped surfactants both individually and as blends. Degelling temperatures were also measured as outlined in example 1 for 25, 30, 35 and 40% aqueous solutions o of the capped and uncapped surfactants both individually and as blends.

[2] = test system: Commelina benghalensis (COMBE); experiment: Glasshouse adjuvancy test for nicosulfuron on COMBE; type: in vivo; conditions: 21 DAA
Experimental: The biological efficacies of blends of an oleyl 20 ethoxylate uncapped surfactant with an oleyl 20 ethoxylate surfactant with an n-hexyl ether cap as adjuvants for the herbicide nicosulfuron were tested in a glasshouse against three weed species sown into standard soil in pots and cultivated under controlled conditions in a glasshouse (24/18° C. day/night; 16 hours light; 65% humidity). Nicosulfuron was added to the spray tank as a standard WG (water dispersible granule) formulation. The plants were sprayed with nicosulfuron at rates of 15 or 60 grams of pesticide per hectare using a laboratory track sprayer which delivered the aqueous spray composition at a rate of 200 litres per hectare, using a flat fan nozzle (Teejet 11002VS) at 2 bar. The adjuvants were added to the spray solution at a total rate of 0.1 or 0.2% w/v in all cases and at extra lower rates for the oleyl 20EO alone and its 1:1 blend with the oleyl 20EO n-hexyl ether to show the dose response to these adjuvants. All spray solutions also contained 10% w/w of iso-propanol. The weed species and their BBCH growth stage at spraying were Chenopodium album (CHEAL; growth stage 15), Digitaria sanguinalis (DIGSA; growth stage 14), and Commelina benghalensis (COMBE; growth stage 14). Each spray test was replicated three times. The test plants were then grown in a glasshouse under controlled conditions (24/18° C. day/night; 16 hours light; 65% humidity) and watered twice a day. The efficacy of the herbicide was assessed visually and expressed as a percentage of the leaf area killed. Samples were assessed at a time period of 21 days following application. The following tables (3-8) show the effect of blends of the two surfactants at a total concentration of 0.2 and 0.1%. In each case the blends were 1:0, 3:1, 1:1, 1:3 and 0:1 w/w of oleyl 20EO:oleyl 20 EO n-hexyl ether.

[3] = test system: Setaria viridis (SETVI); experiment: Glasshouse adjuvancy test for pinoxaden on SETVI; type: in vivo; conditions: total surfactant 0.2% w/v, 21 days
Experimental: Pinoxaden was added to the spray tank as a standard EC (emulsifiable concentrate) formulation. The plants were sprayed with pinoxaden at rates of 7.5 or 15 grams of pesticide per hectare using a laboratory track sprayer which delivered the aqueous spray composition at a rate of 200 litres per hectare, using a flat fan nozzle (Teejet 11002VS) at 2 bar. The spray solutions also contained the oleyl 20EO alone or in the 1:1 blends with the capped surfactants. The adjuvants were added to the spray solution at a total surfactant rate of 0.2% w/v. All spray solutions also contained 10% w/w of iso-propanol. The weed species and their BBCH growth stage at spraying were Avena fatua (AVEFA; growth stage 13) and Setaria viridis (SETVI; growth stage 13). Each spray test was replicated three times. The test plants were then grown in a glasshouse under controlled conditions (20/16° C. day/night; 16 hours light; 65% humidity) and watered twice a day. The efficacy of the herbicide was assessed visually and expressed as a percentage of the leaf area killed. Samples were assessed at a time period of 21 days following application.

[4] = test system: Digitaria sanguinalis (DIGSA); experiment: Glasshouse adjuvancy test for mesotrione on DIGSA; type: in vivo; conditions: total surfactant 0.2% w/v, 21 days
Experimental: (§1) Mesotrione was added to the spray tank as a standard SC (suspension concentrate) formulation. The plants were sprayed with mesotrione at rates of 30 or 60 grams of pesticide per hectare using a laboratory track sprayer which delivered the aqueous spray composition at a rate of 200 litres per hectare, using a flat fan nozzle (Teejet 11002VS) and an application volume of 200 litre/ha (at 2 bar). The spray solutions also contained the oleyl 20EO alone or in 1:1 blends with the capped surfactants. The adjuvants were added to the spray solution at a total surfactant rate of 0.2% w/v. All spray solutions also contained 10% w/w of iso-propanol. The weed species and their BBCH growth stage at spraying were Brachiaria platyphylla (BRAPL; growth stage 12-13), Commelina benghalensis (COMBE; growth stage 12-14) and Digitaria sanguinalis (DIGSA; growth stage 13). Each spray test was replicated three times. The test plants were then grown in a glasshouse under controlled conditions (24/18° C. day/night; 16 hours light; 65% humidity) and watered twice a day. The efficacy of the herbicide was assessed visually and expressed as a percentage of the leaf area killed. Samples were assessed at a time period of 21 days following application

[5] = test system: Brachiaria platyphylla (BRAPL); experiment: Glasshouse adjuvancy test for mesotrione on BRAPL; type: in vivo; conditions: total surfactant 0.2% w/v, 21 days
Experimental: as §1

[6] = total surfactant concentration 25% w/w in water, Table 1
[7] = total surfactant concentration 30% w/w in water, Table 1
[8] = total surfactant concentration 35% w/w in water, Table 1
[9] = total surfactant concentration 40% w/w in water, Table 1
[10] = nicosulfuron 15 g ai/ha, 0.1% surfactant total concentration
[11] = nicosulfuron 15 g ai/ha, 0.2% surfactant total concentration
[12] = nicosulfuron 60 g ai/ha, 0.1% surfactant total concentration
[13] = nicosulfuron 60 g ai/ha, 0.2% surfactant total concentration

| De-gelling temperature [1, 6] [°C] | De-gelling temperature [1, 7] [°C] | De-gelling temperature [1, 8] [°C] | De-gelling temperature [1, 9] [°C] | Compound | Mean control [2, 10] [%] | Mean control [2, 11] [%] | Mean control [2, 12] [%] | Mean control [2, 13] [%] | also measured |
| --- | --- | --- | --- | --- | --- | --- | --- | --- | --- |
| 5.0 | 5.0 | 5.0 | 16.7 | Oleyl 20EO n-hexyl ether | 70 | 80 | 73.3 | 72.5 |  |
| 26.9 | 45.2 | 51.3 | 70.6 | CCCCCCCC/C=C\CCCCCCCCOCCOCCOCCOCCOCCOCCOCCOCCOCCOCCOCCOCCOCCOCCOCCOCCOCCOCCOCCOCCO [Oleyl 20EO, oleyl 20 ethoxylate] | 63.3 | 80 | 63.3 | 72.5 | De-gelling temperature ([1]; 30% w/w total surfactant concentration, Table 15): 42.4 °C; De-gelling temperature ([1]; 40% w/w, Table 19): 66.3 °C; Degelling temperature ([1]; total surfactant concentration 25% w/w): 26.9 °C; De-gelling temperature ([1]; total surfactant concentration 25% w/w, Table 35): 23.3 °C; Degelling temperature ([1]; total surfactant concentration 30% w/w): 45.2 °C; De-gelling temperature ([1]; total surfactant concentration 30% w/w, Table 35): 40.9 °C; Degelling temperature ([1]; total surfactant concentration 35% w/w): 51.3 °C; De-gelling temperature ([1]; total surfactant concentration 35% w/w, Table 35): 56.7 °C; Degelling temperature ([1]; total surfactant concentration 40% w/w): 70.6 °C; De-gelling temperature ([1]; total surfactant concentration 40% w/w, Table 35): 63.1 °C; Mean control ([3]; pinoxaden 7.5 g ai/ha): 98.0%; Mean control ([3]; pinoxaden 15 g ai/ha): 98.3%; Mean control ([4]; mesotrione 30 g ai/ha): 68.3%; Mean control ([4]; mesotrione 60 g ai/ha): 75.0%; Mean control ([5]; mesotrione 30 g ai/ha): 56.7%; Mean control ([5]; mesotrione 60 g ai/ha): 71.7% |
